Assay results: US20070027181A1, “Benzylisoquinoline derivative- or bisbenzylisoquinoline derivative-containing psychotropic agent, analgesic and/or antiphlogistic, and health food” (EDUCATION CENTER OF TRADITIONAL, priority 2004, published 2007)

Experiments:
mice [1] = assay: locomotor activity (ultromotivity) test, evaluation of sedative action; type: in vivo, Male ICR mice
Description: (§1) In the following Examples, all extracts and drugs used were dissolved in physiological saline before use for i.p. administration and the dose was 0.1 ml of physiological saline per 10 g of mouse body weight in either case. All extracts and drugs were suspended in physiological saline containing 1% sodium carboxymethylcellulose before use for oral administration and the dose was 0.1 ml of 1% sodium carboxymethylcellulose-containing physiological saline suspension per 10 g of mouse body weight in either case. Male ICR mice (Japan SLC) having a body weight of 25 to 30 g were used in the tests below unless otherwise stated, and were fed in advance at a room temperature of 23±1° C. and a relative humidity of 55±5% in the environment of a cycle of 12-hour-light from 7 a.m. to 7 p.m. and 12-hour-dark from 7 p.m. to 7 a.m. for 3 to 5 days. The mice were allowed to have water and feed freely.
Twenty five mice were grouped into five groups each having five mice, to which 5 mg/kg of N-methylcoclaurine hydrochloride (treatment group 1-1: i.p. administration), 50 mg/kg of neferine hydrochloride (treatment group 1-2: oral administration, and treatment group 1-3: i.p. administration), 50 mg/kg of liensinine hydrochloride (treatment group 1-4: oral administration), or physiological saline (negative control group 1-1: i.p. administration) was administered. The ultromotivity of the mice was analyzed by using a locomotor activity monitoring system (NS-AS01, Neuroscience Inc.). The ultromotivity measurements were performed at an interval of 5 minutes for 60 minutes, and the ultromotivity was judged from the count at each measuring time.
Similar tests were conducted by i.p. administration of 25 mg/kg of N-norarmepavine (treatment group 1-5, n=6), 25 mg/kg of O,O-dimethylcoclaurine (treatment group 1-6, n=5), 10 mg and 25 mg/kg of armepavine (respectively, treatment group 1-7, n=6, and treatment group 1-8, n=6), 10 mg and 25 mg/kg of O-methylarmepavine (respectively, treatment group 1-9, n=6, and treatment group 1-10, n=6), and physiological saline (negative control group 1-2, n=5). The ultromotivity measurements were performed at an interval of five minutes for 60 minutes, and the ultromotivity was subjected to a significant difference test (Tukey's method) by using the counts at respective measuring times.
Tests were performed by using mice administered intraperitoneally with 25 mg/kg of neferine hydrochloride (treatment group 7-1, n=6), 25 mg/kg of liensinine hydrochloride (treatment group 7-2, n=6), and physiological saline (negative control group, n=6) as well as 5 mg/kg of diazepam (positive control group, n=6) and a rotarod equipment (Ugo Basile, Italy) and a locomotor activity monitoring system (NS-AS01, Neuroscience Inc.). The rotarod test was performed by placing a mouse on a rod having a diameter of 4 cm rotating at a speed of 8 rpm 15 minutes after drug administration and observing whether the mouse can stay on the rod without falling for three minutes. The individuals that had fallen from the rotating rod in the period of 3 minutes were judged that they are with motor coordination disorder. […] In addition, the ultromotivity measurements were performed at an interval of five minutes for 60 minutes, and the ultromotivity results were subjected to a significant difference test (Tukey's method) by using the counts at respective measuring times.

mice [2] = assay: acetic acid-induced writhing test; type: in vivo, Male ICR mice
Description: as §1
An acetic acid-induced writhing test is a method wherein analgesic action of a compound is determined utilizing this. The number of this writhing is compared between a physiological saline-administered control group and a test drug-administered group, and suppression of the number of writhing by the test drug is investigated thereby assessing its analgesic action.
Seven to ten mice per group were used. Neferine hydrochloride was subcutaneously administered to mice at their back at a dose of 5 mg/kg, 10 mg/kg, 25 mg/kg, 50 mg/kg or 100 mg/kg and, after 15 minutes, a 0.6% by weight solution of acetic acid in water was intraperitoneally administered at 0.1 mL/10 g body weight. The number of writhing was counted every ten minutes for 30 minutes from immediately after acetic acid administration (0 to 10 min, 10 to 20 min, 20 to 30 min). In addition, the total number of writhing for 30 minutes from immediately after acetic acid administration was also obtained. Regarding the resulting measurements, a significant difference test was performed by a Dunnet multiple comparison test method.
According to the same manner as in acetic acid-induced writhing test-1 except that acetic acid was intraperitoneally administered 30 minutes after subcutaneous administration of neferine in the aforementioned acetic acid-induced writhing test-1, an acetic acid-induced writhing test was performed. However, the dose of neferine was only 50 mg/kg.
According to the same manner as in the acetic acid-induced writhing test-1 except that acetic acid was intraperitoneally administered 30 minutes after oral administration of neferine in the aforementioned acetic acid-induced writhing test-1, an acetic acid-induced writhing test was performed. However, five to six mice per group were used. The dose of neferine was 10 mg/kg and 50 mg/kg. Further, aspirin was used as a positive control drug. The dose of aspirin was 50 mg/kg.
According to the same manner as in acetic acid-induced writhing test-1 except that armepavine was used in place of neferine in the aforementioned acetic acid-induced writhing test-1, an acetic acid-induced writhing test was performed. However, the dose of armepavine was 5 mg/kg and 10 mg/kg.
According to the same manner as in acetic acid-induced writhing test-1 except that O-methylarmepavine was used in place of neferine in the aforementioned acetic acid-induced writhing test-1, an acetic acid-induced writhing test was performed. However, the dose of O-methylarmepavine was 5 mg/kg and 10 mg/kg.

[3] = 5 mg/kg s.c. 15 minutes before acetic acid
[4] = 10 mg/kg oral 30 minutes before acetic acid
[5] = 10 mg/kg s.c. 15 minutes before acetic acid
[6] = 25 mg/kg s.c. 15 minutes before acetic acid
[7] = 50 mg/kg oral 30 minutes before acetic acid
[8] = 50 mg/kg s.c. 15 minutes before acetic acid
[9] = 50 mg/kg s.c. 30 minutes before acetic acid
[10] = 100 mg/kg s.c. 15 minutes before acetic acid

## COc1ccc(C[C@@H]2c3cc(Oc4cc(C[C@@H]5c6cc(OC)c(OC)cc6CCN5C)ccc4O)c(OC)cc3CCN2C)cc1 [neferine]
Mice [1]; 25 mg/kg i.p., Tukey's method, 60 minutes
  Significant difference test of ultromotivity: P < 0.01
Mice [1]; 50 mg/kg i.p.
  Ultromotivity (count) 30 minutes: 500 count
Mice [1]; 50 mg/kg i.p., 60 minutes
  Ultromotivity (count) 60 minutes: 760 count
Mice [1]; 50 mg/kg oral
  Ultromotivity (count) 30 minutes: 500 count
Mice [1]; 50 mg/kg oral, 60 minutes
  Ultromotivity (count) 60 minutes: 750 count
Mice [2]; [3]
  Number of writhing 0-10 min.: 21.8 ± 2.30
  Number of writhing 0-30 min.: 51.0 ± 5.34
  Number of writhing 10-20 min.: 19.0 ± 2.14
  Number of writhing 20-30 min.: 10.7 ± 2.04
Mice [2]; [4]
  Number of writhing 0-10 min.: 7.6 ± 1.63
  Number of writhing 0-30 min.: 23.3 ± 1.52
  Number of writhing 10-20 min.: 9.2 ± 1.35
  Number of writhing 20-30 min.: 6.5 ± 2.50
Mice [2]; [5]
  Number of writhing 0-10 min.: 12.1 ± 1.91
  Number of writhing 0-30 min.: 31.6 ± 6.15
  Number of writhing 10-20 min.: 11.6 ± 2.66
  Number of writhing 20-30 min.: 7.9 ± 3.06
Mice [2]; [6]
  Number of writhing 0-10 min.: 8.9 ± 2.22
  Number of writhing 0-30 min.: 19.4 ± 3.48
  Number of writhing 10-20 min.: 6.9 ± 1.90
  Number of writhing 20-30 min.: 3.6 ± 1.19
Mice [2]; [7]
  Number of writhing 0-10 min.: 2.4 ± 1.94
  Number of writhing 0-30 min.: 8.0 ± 3.08
  Number of writhing 10-20 min.: 4.0 ± 1.30
  Number of writhing 20-30 min.: 1.6 ± 0.81
Mice [2]; [8]
  Number of writhing 0-10 min.: 5.7 ± 1.38
  Number of writhing 0-30 min.: 19.7 ± 3.56
  Number of writhing 10-20 min.: 5.7 ± 1.38
  Number of writhing 20-30 min.: 5.3 ± 2.15
Mice [2]; [9]
  Number of writhing 0-10 min.: 10.6 ± 2.53
  Number of writhing 0-30 min.: 27.4 ± 3.73
  Number of writhing 10-20 min.: 10.3 ± 1.90
  Number of writhing 20-30 min.: 6.6 ± 1.53
Mice [2]; [10]
  Number of writhing 0-10 min.: 4.0 ± 1.22
  Number of writhing 0-30 min.: 14.9 ± 2.16
  Number of writhing 10-20 min.: 6.7 ± 1.31
  Number of writhing 20-30 min.: 4.2 ± 1.02
Mice [2]; 15 minute-before subcutaneous administration
  dose showing significant analgesic action against the negative control group: ≥ 10 mg/kg
Mice [2]; oral administration 30 minutes before acetic acid
  analgesic action compared with aspirin: strong analgesic action as compared with aspirin
